According to article PMC10557740 (bioRxiv, 2023):

Tests used:
[1] = target: 5-hydroxytryptamine 2A receptor (HTR2A) (Mus musculus, UniProt P35363); assay type: binding
[2] = target: HTR2A-A242S-EGFP-CT (humanized 5-hydroxytryptamine 2A receptor) (Mus musculus, UniProt P35363, A242S); experiment: radioligand saturation binding on cortical crude membranes
HTR2A-A242S-EGFP-CT (humanized 5-hydroxytryptamine 2A receptor), sequence (P35363 1-452 A242S, other chains not shown): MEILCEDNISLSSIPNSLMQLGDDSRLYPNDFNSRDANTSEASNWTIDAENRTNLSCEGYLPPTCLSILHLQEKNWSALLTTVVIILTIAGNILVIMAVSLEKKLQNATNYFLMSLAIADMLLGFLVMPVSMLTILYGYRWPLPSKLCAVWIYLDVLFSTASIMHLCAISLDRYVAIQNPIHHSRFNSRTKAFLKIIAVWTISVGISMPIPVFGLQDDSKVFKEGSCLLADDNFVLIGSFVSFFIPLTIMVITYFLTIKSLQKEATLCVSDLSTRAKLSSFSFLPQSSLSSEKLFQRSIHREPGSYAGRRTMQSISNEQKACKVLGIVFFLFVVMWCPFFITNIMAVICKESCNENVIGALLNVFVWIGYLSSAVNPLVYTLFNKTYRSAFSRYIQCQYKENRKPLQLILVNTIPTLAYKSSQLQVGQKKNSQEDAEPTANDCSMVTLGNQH

5-hydroxytryptamine 2A receptor (HTR2A), sequence (P35363 whole entry): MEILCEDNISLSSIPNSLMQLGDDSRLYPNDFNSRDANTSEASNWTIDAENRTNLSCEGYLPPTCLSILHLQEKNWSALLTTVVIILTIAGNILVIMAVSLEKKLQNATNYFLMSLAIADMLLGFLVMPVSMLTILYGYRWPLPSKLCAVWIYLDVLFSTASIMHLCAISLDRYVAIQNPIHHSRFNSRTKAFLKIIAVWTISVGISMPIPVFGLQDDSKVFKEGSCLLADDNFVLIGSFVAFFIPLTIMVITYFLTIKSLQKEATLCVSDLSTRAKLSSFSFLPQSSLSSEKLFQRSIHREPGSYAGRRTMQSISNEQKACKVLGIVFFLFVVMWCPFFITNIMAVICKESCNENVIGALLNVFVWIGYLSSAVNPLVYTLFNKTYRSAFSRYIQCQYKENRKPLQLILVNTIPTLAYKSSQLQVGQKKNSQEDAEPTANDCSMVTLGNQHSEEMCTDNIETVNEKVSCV

O=C(c1ccc(F)cc1)C1CCN(CCn2c(=O)[nH]c3ccccc3c2=O)CC1 [[3H]-ketanserin]
Kd [1]: 1.09 ± 0.324 nM | Kd [2]: 2.38 ± 1.48 nM
